In USRE41149E1, “Optically active pyridonecarboxylic acid derivatives” (Daiichi Sankyo Company, Limited, priority 1988, dated 2010):
Converted amounts (≈) assume the structure as drawn. Counter-ions that a name gives are not always drawn.

What was measured:
[1] = test system: Str. faecalis, ATCC 19433; assay: Antimicrobial activity (MIC), standard method of Nippon Kagakuryoho Gakkai; assay type: cell-based; conditions: for Antimicrobial activity (MIC): Str. faecalis; for MIC: Enterococcus faecalis, ATCC19433, Str. faecalis
Protocol: (§1) Antimicrobial activity of the optically active compounds prepared in Examples was evaluated in accordance with the standard method specified by Nippon […], and results obtained are shown in Table 1 which precedes the claims herein in terms of minimum inhibitory concentration (MIC: […]).

[2] = test system: Ser. marcescens, 10100; assay: as above; assay type: cell-based; conditions: for Antimicrobial activity (MIC): Ser. marcescens; for MIC: Serratia marcescens, 10100, Ser. marcescens
Protocol: as §1

[3] = test system: Ps. aeruginosa, 32121; assay: as above; assay type: cell-based; conditions: for Antimicrobial activity (MIC): Ps. aeruginosa; for MIC: Pseudomonas aeruginosa, 32121, Ps. aeruginosa
Protocol: as §1

[4] = test system: S. aureus, 209 P; assay: as above; assay type: cell-based; conditions: for MIC: Staphylococcus aureus
Protocol: as §1

[5] = test system: Pr. vulgaris, 08601; assay: as above; assay type: cell-based; conditions: for MIC: Proteus vulgaris
Protocol: as §1

[6] = test system: S. epidermidis, 56500; assay: as above; assay type: cell-based; conditions: for Antimicrobial activity (MIC): S. epidermidis; for MIC: Staphylococcus epidermidis, 56500, S. epidermidis
Protocol: as §1

[7] = test system: E. coli., NIHJ; assay: as above; assay type: cell-based; conditions: for MIC: Escherichia coli
Protocol: as §1

[8] = test system: Ps. aeruginosa, 32104; assay: as above; assay type: cell-based; conditions: for Antimicrobial activity (MIC): Ps. aeruginosa; for MIC: Pseudomonas aeruginosa, 32104, Ps. aeruginosa
Protocol: as §1

| Compound | Antimicrobial activity (MIC) [1] | Antimicrobial activity (MIC) [2] | Antimicrobial activity (MIC) [3] | Antimicrobial activity (MIC) [4] | Antimicrobial activity (MIC) [5] | Antimicrobial activity (MIC) [6] | Antimicrobial activity (MIC) [7] | Antimicrobial activity (MIC) [8] | MIC [5] | MIC [7] | melting point | MIC [1] | MIC [2] | MIC [3] | MIC [4] | MIC [6] | MIC [8] |
| --- | --- | --- | --- | --- | --- | --- | --- | --- | --- | --- | --- | --- | --- | --- | --- | --- | --- |
| Nc1c(F)c(N2CC(N)C3(CC3)C2)c(F)c2c1c(=O)c(C(=O)O)cn2[C@@H]1C[C@@H]1F (relative stereo) [Compound 56b, 5-Amino-7-(7-amino-5-azaspiro[2,4]heptan-5-yl)-6,8-difluoro-1-(1,2-cis-2-fluoro-1-cyclopropyl) 4-oxo-1,4-dihydroquinoline-3-carboxylic acid] | 0.10 µg/mL | <0.1 µg/mL | <0.1 µg/mL | <0.1 µg/mL | <0.1 µg/mL | <0.1 µg/mL | <0.1 µg/mL | <0.1 µg/mL | – | – | – | – | – | – | – | – | – |
| N[C@H]1CCN(c2cc3c(cc2F)c(=O)c(C(=O)O)cn3[C@@H]2C[C@@H]2F)C1 (relative stereo) [Compound 9a, 7-[3-(S)-Amino-1-pyrrolidinyl]-6-fluoro-1-(1,2-cis-2-fluorocyclopropyl)-4-oxo-1,4-dihydroquinoline-3-carboxylic acid] | 1.57 µg/mL | 0.20 µg/mL | 0.10 µg/mL | 0.10 µg/mL | <0.1 µg/mL | 0.39 µg/mL | 0.10 µg/mL | 0.39 µg/mL | – | – | – | – | – | – | – | – | – |
| (−)-7-[3-(S)-Amino-1-pyrrolidinyl]-8-chloro-6-fluoro-1-(1,2-cis-2-fluoro-1-cyclopropyl)-4-oxo-1,4-dihydroquinoline-3-carboxylic acid [Compound 13b] | 0.20 µg/mL | <0.1 µg/mL | <0.1 µg/mL | <0.1 µg/mL | <0.1 µg/mL | <0.1 µg/mL | <0.1 µg/mL | <0.1 µg/mL | – | – | – | – | – | – | – | – | – |
| (−)-5-Amino-7-[3-(S)-amino-1-pyrrolidinyl]-6,8-difluoro-1-(1,2-cis-2-fluoro-1-cyclopropyl)-4-oxo-1,4-dihydroquinoline-3-carboxylic acid [Compound 18a] | 0.20 µg/mL | <0.1 µg/mL | <0.1 µg/mL | <0.1 µg/mL | <0.1 µg/mL | <0.1 µg/mL | <0.1 µg/mL | <0.1 µg/mL | – | – | – | – | – | – | – | – | – |
| NC1CN(c2c(F)cc3c(=O)c(C(=O)O)cn(C4CC4F)c3c2Cl)CC12CC2 (centres unmarked) [Compound 26ba] | 0.39 µg/mL | <0.1 µg/mL | 0.10 µg/mL | <0.1 µg/mL | – | 0.20 µg/mL | – | 0.20 µg/mL | < 0.1 µg/mL | < 0.1 µg/mL | – | – | – | – | – | – | – |
| Cc1c(N2CC[C@@H]([C@H](C)N)C2)c(F)cc2c(=O)c(C(=O)O)cn(C3CC3F)c12 (single isomer, unassigned; (-)) (as salt: hydrochloride) [Compound 54b] | – | – | – | – | – | – | – | – | – | – | 149 to 153 °C | – | – | – | – | – | – |
| NC1CN(c2c(F)cc3c(=O)c(C(=O)O)cn(C4CC4F)c3c2Cl)CC12CC2 (single isomer, unassigned) [Compound 26ab] | 0.20 µg/mL | <0.1 µg/mL | <0.1 µg/mL | <0.1 µg/mL | <0.1 µg/mL | 0.10 µg/mL | <0.1 µg/mL | 0.20 µg/mL | – | – | – | – | – | – | – | – | – |
| C[C@H]1C[C@H](N)CN1c1nc2c(cc1F)c(=O)c(C(=O)O)cn2[C@@H]1C[C@@H]1F (relative stereo) [Compound 31b, 7-[4-(S)-Amino-2-(S)-methyl-1-pyrrolidinyl]-6-fluoro-1-(1,2-cis-2-fluoro-1-cyclopropyl)-4-oxo-1,4-dihydro-1,8-naphthyridine-3-carboxylic acid] | 0.39 µg/mL | 0.10 µg/mL | 0.10 µg/mL | <0.1 µg/mL | <0.1 µg/mL | 0.20 µg/mL | <0.1 µg/mL | 0.20 µg/mL | – | – | – | – | – | – | – | – | – |
| Cc1c(N2CC[C@@H]([C@H](C)N)C2)c(F)cc2c(=O)c(C(=O)O)cn(C3CC3F)c12 (single isomer, unassigned; (-)) [Compound 54b, hydrochloride] | – | – | – | – | – | – | – | – | < 0.1 µg/mL | < 0.1 µg/mL | – | 0.1 µg/mL | 0.1 µg/mL | 0.1 µg/mL | < 0.1 µg/mL | < 0.1 µg/mL | 0.2 µg/mL |
| (+)-7-[3-(S)-Amino-1-pyrrolidinyl]-8-chloro-6-fluoro-1-(1,2-cis-2-fluoro-1-cyclopropyl)-4-oxo-1,4-dihydroquinoline-3-carboxylic acid [Compound 13a] | 0.20 µg/mL | <0.1 µg/mL | <0.1 µg/mL | <0.1 µg/mL | <0.1 µg/mL | <0.1 µg/mL | <0.1 µg/mL | <0.1 µg/mL | – | – | – | – | – | – | – | – | – |
| CC1(C)CN(c2c(F)cc3c(=O)c(C(=O)O)cn([C@@H]4C[C@@H]4F)c3c2Cl)CC1N (single isomer, unassigned; (-)) [Compound 59b] | – | – | – | – | – | – | – | – | < 0.1 µg/mL | < 0.1 µg/mL | 118 to 121 °C | 0.1 µg/mL (≈ 0.243 µM) | < 0.1 µg/mL | < 0.1 µg/mL | < 0.1 µg/mL | < 0.1 µg/mL | 0.2 µg/mL (≈ 0.486 µM) |
| NC1CN(c2c(F)cc3c(=O)c(C(=O)O)cn([C@@H]4C[C@@H]4F)c3c2Cl)CC12CC2 (relative stereo) [Compound 26bb, (−)-7-(7-Amino-5-azaspiro[2.4]heptan-5-yl)-8-chloro-6-fluoro-1-(1,2-cis-2-fluoro-1-cylcopropyl)-1,4-dihydro-4-oxoquinoline-3-carboxylic acid] | 0.20 µg/mL | <0.1 µg/mL | <0.1 µg/mL | <0.1 µg/mL | <0.1 µg/mL | <0.1 µg/mL | <0.1 µg/mL | <0.1 µg/mL | – | – | – | – | – | – | – | – | – |
| (+)-5-Amino-7-[3-(S)-amino-1-pyrrolidinyl]-6,8-difluoro-1-(1,2-cis-2-fluoro-1-cyclopropyl)-4-oxo-1,4-dihydroquinoline-3-carboxylic acid [Compound 18b] | 0.10 µg/mL | <0.1 µg/mL | <0.1 µg/mL | <0.1 µg/mL | <0.1 µg/mL | <0.1 µg/mL | <0.1 µg/mL | <0.1 µg/mL | – | – | – | – | – | – | – | – | – |
| N[C@H]1CCN(c2cc3c(cc2F)c(=O)c(C(=O)O)cn3[C@@H]2C[C@@H]2F)C1 (relative stereo) [Compound 9b, 7-[3-(S)-Amino-1-pyrrolidinyl]-6-fluoro-1-(1,2-cis-2-fluorocyclopropyl)-4-oxo-1,4-dihydroquinoline-3-carboxylic acid] | 0.79 µg/mL | 0.10 µg/mL | <0.1 µg/mL | <0.1 µg/mL | <0.1 µg/mL | 0.39 µg/mL | <0.1 µg/mL | 0.10 µg/mL | – | – | – | – | – | – | – | – | – |
| C[C@H](N)[C@@H]1CCN(c2c(F)cc3c(=O)c(C(=O)O)cn(C4CC4F)c3c2Cl)C1 (single isomer, unassigned; (-)) [Compound 34b] | – | – | – | – | – | – | – | – | < 0.1 µg/mL | < 0.1 µg/mL | 204 to 207 °C | < 0.1 µg/mL | < 0.1 µg/mL | < 0.1 µg/mL | < 0.1 µg/mL | < 0.1 µg/mL | 0.1 µg/mL (≈ 0.243 µM) |
| NC1CN(c2c(F)cc3c(=O)c(C(=O)O)cn([C@@H]4C[C@@H]4F)c3c2Cl)CC12CCC2 (relative stereo) [Compound 58b, (−)-7-(8-amino-6-azaspiro[3.4]octane-6-yl)-8-chloro-6-fluoro-1-(1,2-cis-2-fluoro-1-cyclopropyl)-1,4-dihydro-4-oxoquinoline-3-carboxylic acid] | <0.1 µg/mL | <0.1 µg/mL | <0.1 µg/mL | <0.1 µg/mL | <0.1 µg/mL | <0.1 µg/mL | <0.1 µg/mL | 0.10 µg/mL | – | – | – | – | – | – | – | – | – |
| NC1CN(c2c(F)cc3c(=O)c(C(=O)O)cn(C4CC4F)c3c2Cl)CC12CC2 (single isomer, unassigned) [Compound 26aa] | – | – | – | – | <0.1 µg/mL | – | <0.1 µg/mL | – | – | – | – | 0.39 µg/mL (≈ 0.952 µM) | 0.1 µg/mL (≈ 0.244 µM) | 0.1 µg/mL (≈ 0.244 µM) | < 0.1 µg/mL | 0.2 µg/mL (≈ 0.488 µM) | 0.39 µg/mL (≈ 0.952 µM) |
